Results: PubChem BioAssay AID1259407 (Chemical Carcinogenesis Research Information System (CCRIS), 2018)
Active and inactive are the calls of the source. No rule for the calls is given here.

System: CCRIS mutagenicity, Ames/micronucleus/aberration tests
Assay: CCRIS mutagenicity studies
[1] = Test System: AMES SALMONELLA TYPHIMURIUM, Strain/Indicator: TA98, Metabolic Activation: NONE, Method: PREINCUBATION
[2] = Test System: AMES SALMONELLA TYPHIMURIUM, Strain/Indicator: TA98, Metabolic Activation: NONE, Method: STANDARD PLATE
[3] = Test System: AMES SALMONELLA TYPHIMURIUM, Strain/Indicator: TA98, Metabolic Activation: RAT, LIVER, S-9, AROCLOR 1254, Method: STANDARD PLATE
[4] = Test System: AMES SALMONELLA TYPHIMURIUM, Strain/Indicator: TA100, Metabolic Activation: NONE, Method: PREINCUBATION
[5] = Test System: AMES SALMONELLA TYPHIMURIUM, Strain/Indicator: TA100, Metabolic Activation: NONE, Method: STANDARD PLATE
[6] = Test System: AMES SALMONELLA TYPHIMURIUM, Strain/Indicator: TA100, Metabolic Activation: RAT, LIVER, S-9, AROCLOR 1254, Method: STANDARD PLATE
[7] = Test System: AMES SALMONELLA TYPHIMURIUM, Strain/Indicator: TA1535, Metabolic Activation: NONE, Method: PREINCUBATION
[8] = Test System: AMES SALMONELLA TYPHIMURIUM, Strain/Indicator: TA1537, Metabolic Activation: NONE, Method: PREINCUBATION
[9] = Test System: AMES SALMONELLA TYPHIMURIUM, Strain/Indicator: TA1535, Metabolic Activation: NONE, Method: STANDARD PLATE

Measured: mutagenic call

N.N.O=C([O-])C1(C(=O)[O-])CCC1.[Pt+4]
active: Test System: AMES SALMONELLA TYPHIMURIUM, Strain/Indicator: TA102, Metabolic Activation: NONE, Method: STANDARD PLATE active; positive | Test System: AMES SALMONELLA TYPHIMURIUM, Strain/Indicator: TA102, Metabolic Activation: RAT, LIVER, S-9, AROCLOR 1254, Method: STANDARD PLATE active; positive | Test System: CHINESE HAMSTER, Strain/Indicator: V-79/6-THIOGUANINE (HGPRT), Metabolic Activation: NONE, Method: STANDARD PLATE active; positive
inactive: [1] inactive; negative | [2] inactive; negative | [3] inactive; negative | Test System: AMES SALMONELLA TYPHIMURIUM, Strain/Indicator: TA98, Metabolic Activation: RAT, LIVER, S-9, PHENOBARBITAL AND 5,6-BENZOFLAVONE, Method: PREINCUBATION inactive; negative | [4] inactive; negative | [5] inactive; negative | [6] inactive; negative | Test System: AMES SALMONELLA TYPHIMURIUM, Strain/Indicator: TA100, Metabolic Activation: RAT, LIVER, S-9, PHENOBARBITAL AND 5,6-BENZOFLAVONE, Method: PREINCUBATION inactive; negative | [7] inactive; negative | Test System: AMES SALMONELLA TYPHIMURIUM, Strain/Indicator: TA1535, Metabolic Activation: RAT, LIVER, S-9, PHENOBARBITAL AND 5,6-BENZOFLAVONE, Method: PREINCUBATION inactive; negative | [8] inactive; negative | Test System: AMES SALMONELLA TYPHIMURIUM, Strain/Indicator: TA1537, Metabolic Activation: RAT, LIVER, S-9, PHENOBARBITAL AND 5,6-BENZOFLAVONE, Method: PREINCUBATION inactive; negative | Test System: E.COLI, Strain/Indicator: WP2 UVRA, Metabolic Activation: NONE, Method: PREINCUBATION inactive; negative | Test System: E.COLI, Strain/Indicator: WP2 UVRA, Metabolic Activation: RAT, LIVER, S-9, PHENOBARBITAL AND 5,6-BENZOFLAVONE, Method: PREINCUBATION inactive; negative

CCC(=O)OCc1ccccc1[N+](=O)[O-]
inactive: [1] inactive; negative | [4] inactive; negative | Test System: AMES SALMONELLA TYPHIMURIUM, Strain/Indicator: TA100, Metabolic Activation: RAT, LIVER, S-9, AROCLOR 1254, Method: PREINCUBATION inactive; negative

c1ccc2c(c1)-c1ccc3ccccc3c1C1NC21 (stereo not drawn)
active: Test System: AMES SALMONELLA TYPHIMURIUM, Strain/Indicator: TA98, Metabolic Activation: NONE, Method: PREINCUBATION (KCL-CONTAINING OR KCL-FREE MEDIA) active; positive | Test System: AMES SALMONELLA TYPHIMURIUM, Strain/Indicator: TA100, Metabolic Activation: NONE, Method: PREINCUBATION (KCL-CONTAINING MEDIUM) active; positive | Test System: AMES SALMONELLA TYPHIMURIUM, Strain/Indicator: TA100, Metabolic Activation: NONE, Method: PREINCUBATION (KCL-FREE MEDIUM) active; positive

C[C@]12CC[C@@H]3c4ccc(O)c(O)c4CC[C@H]3[C@@H]1CC[C@@H]2O
inactive: Test System: Ames Salmonella Typhimurium, Strain/Indicator: TA98, Metabolic Activation: None, Method: Standard plate inactive; negative | Test System: Ames Salmonella Typhimurium, Strain/Indicator: TA98, Metabolic Activation: Rat, liver, S-9 (0.5 ml), Method: Standard plate inactive; negative | Test System: Ames Salmonella Typhimurium, Strain/Indicator: TA100, Metabolic Activation: None, Method: Standard plate inactive; negative | Test System: Ames Salmonella typhimurium, Strain/Indicator: TA100, Metabolic Activation: Rat, liver, S-9, Method: Standard plate inactive; negative

c1ccc(C(c2ccccc2)c2ccccc2)cc1
inactive: Test System: AMES SALMONELLA TYPHIMURIUM, Strain/Indicator: TA97, Metabolic Activation: NONE, Method: STANDARD PLATE inactive; negative | Test System: AMES SALMONELLA TYPHIMURIUM, Strain/Indicator: TA97, Metabolic Activation: RAT, LIVER, S-9, AROCLOR 1254, Method: STANDARD PLATE inactive; negative | [2] inactive; negative | [3] inactive; negative | [5] inactive; negative | [6] inactive; negative | Test System: AMES SALMONELLA TYPHIMURIUM, Strain/Indicator: TA104, Metabolic Activation: NONE, Method: STANDARD PLATE inactive; negative | Test System: AMES SALMONELLA TYPHIMURIUM, Strain/Indicator: TA104, Metabolic Activation: RAT, LIVER, S-9, AROCLOR 1254, Method: STANDARD PLATE inactive; negative

CC(=O)/C=C/CCC(=O)/C=C/C(=O)O[C@@H](CCC(=O)/C=C/C(=O)O)CC(C)=O
active: Test System: CHINESE HAMSTER V-79, Strain/Indicator: V-79 (HPRT)/6-THIOGUANINE, Metabolic Activation: NONE active; positive

O=c1c(O)c2c(c3c1ccc1[nH]c4c(ccc5ccccc54)cc13)O2
inactive: Test System: AMES SALMONELLA TYPHIMURIUM, Strain/Indicator: TA98, Metabolic Activation: RAT, LIVER, AROCLOR 1254, NADPH GENERATING SYSTEM, Method: STANDARD PLATE inactive; negative | Test System: AMES SALMONELLA TYPHIMURIUM, Strain/Indicator: TA100, Metabolic Activation: RAT, LIVER, AROCLOR 1254, NADPH GENERATING SYSTEM, Method: STANDARD PLATE inactive; negative | Test System: CHINESE HAMSTER V-79, Strain/Indicator: V-79/8-AZAGUANINE, Method: STANDARD PLATE inactive; negative

O=Cc1cccc2cccnc12
active: [6] active; positive
inactive: [2] inactive; negative | [3] inactive; negative | [5] inactive; negative | [9] inactive; negative | Test System: AMES SALMONELLA TYPHIMURIUM, Strain/Indicator: TA1535, Metabolic Activation: RAT, LIVER, S-9, AROCLOR 1254, Method: STANDARD PLATE inactive; negative | Test System: AMES SALMONELLA TYPHIMURIUM, Strain/Indicator: TA1537, Metabolic Activation: NONE, Method: STANDARD PLATE inactive; negative | Test System: AMES SALMONELLA TYPHIMURIUM, Strain/Indicator: TA1537, Metabolic Activation: RAT, LIVER, S-9, AROCLOR 1254, Method: STANDARD PLATE inactive; negative

Nc1ccc2c(N)c3ccccc3nc2c1
active: [8] active; positive | Test System: AMES SALMONELLA TYPHIMURIUM, Strain/Indicator: TA1537, Metabolic Activation: RAT, LIVER, S-9, TETRACHLOROBIPHENYL, Method: PREINCUBATION active; positive | Test System: AMES SALMONELLA TYPHIMURIUM, Strain/Indicator: TA1538, Metabolic Activation: NONE, Method: PREINCUBATION active; positive | Test System: AMES SALMONELLA TYPHIMURIUM, Strain/Indicator: TA1538, Metabolic Activation: RAT, LIVER, S-9, TETRACHLOROBIPHENYL, Method: PREINCUBATION active; positive | Test System: AMES SALMONELLA TYPHIMURIUM, Strain/Indicator: TA1977, Metabolic Activation: NONE, Method: PREINCUBATION active; positive | Test System: AMES SALMONELLA TYPHIMURIUM, Strain/Indicator: TA1977, Metabolic Activation: RAT, LIVER, S-9, TETRACHLOROBIPHENYL, Method: PREINCUBATION active; positive
inactive: [7] inactive; negative | Test System: AMES SALMONELLA TYPHIMURIUM, Strain/Indicator: TA1535, Metabolic Activation: RAT, LIVER, S-9, TETRACHLOROBIPHENYL, Method: PREINCUBATION inactive; negative | Test System: AMES SALMONELLA TYPHIMURIUM, Strain/Indicator: TA1978, Metabolic Activation: NONE, Method: PREINCUBATION inactive; negative | Test System: AMES SALMONELLA TYPHIMURIUM, Strain/Indicator: TA1978, Metabolic Activation: RAT, LIVER, S-9, TETRACHLOROBIPHENYL, Method: PREINCUBATION inactive; negative

Nc1ncnc2c1ncn2[C@@H]1O[C@H](CO)C[C@H]1O
active: [2] active; positive | Test System: AMES SALMONELLA TYPHIMURIUM, Strain/Indicator: TA98, Metabolic Activation: RAT, LIVER, S-9, POLYCHLORINATED BIPHENYLS, Method: STANDARD PLATE active; positive | [5] active; positive | Test System: AMES SALMONELLA TYPHIMURIUM, Strain/Indicator: TA100, Metabolic Activation: RAT, LIVER, S-9, POLYCHLORINATED BIPHENYLS, Method: STANDARD PLATE active; positive

CN(Cc1ccc(Cl)cc1)N=O
inactive: [9] inactive; negative
active: Test System: AMES SALMONELLA TYPHIMURIUM, Strain/Indicator: TA1535, Metabolic Activation: HAMSTER, LIVER, S-9, AROCLOR 1254, Method: STANDARD PLATE active; positive
